Values quoted from earlier work, collected in patent US9932637B2, “Genetic polymorphisms associated with cardiovascular disorders and drug response, methods of detection and uses thereof” (CELERA CORPORATION, priority 2003, dated 2018).

Test system: subjects with average cholesterol levels
Details: AFCAPS/TexCAPS; cited from earlier work

## CC[C@H](C)C(=O)O[C@H]1C[C@@H](C)C=C2C=C[C@H](C)[C@H](CC[C@@H]3C[C@@H](O)CC(=O)O3)[C@H]21 [lovastatin]
  LDL-C reduced (average): 25%
  events decreased: 37%
